{"source": "patent US20140220108A1", "about": "“COCHLEATE COMPOSITIONS AND METHODS OF MAKING AND USING SAME” (priority 2011, published 2014)", "key": {"[1]": {"experiment": "Encochleation efficiency by lipid composition, drug in supernatant after centrifugation", "format": "physicochemical", "conditions": "independent of the lipid composition of the PS vesicles", "method": "For example, incorporation of phosphatidylserine (PS) combined with 99.9% pure dioleoyl PS, 99.9% pure soy PS, 75% soy PS and 50% soy PS, were used to manufacture cochleates. The lipid composition of 99.9% pure PS was modified by the addition of sphingomyelin, phosphatidylcholine and/or cholesterol. Encochleation efficiency was determined by assaying the concentration of drug in the supernatant following centrifugation."}, "M. avium": {"test_system": "M. avium", "conditions": "cited from earlier work"}, "M. avium 101 [2]": {"test_system": "M. avium 101", "experiment": "Splenic bacterial counts in M. avium 101-infected C57BL/6 mice", "format": "in vivo, Mycobacterium avium", "conditions": "1 mg amikacin/mouse/day, 2 weeks, 3 weeks infected control 7.8 ± 0.4 × 10^7"}, "M. avium 101 [3]": {"test_system": "M. avium 101", "experiment": "M. avium 101-infected mouse peritoneal macrophages (Raw 264.7), intracellular bacteria after 4 days of treatment", "format": "cell-based, Mycobacterium avium", "method": "(§1) Amikacin cochleate (Amkcch) formulations were optimized for amikacin encochleation efficiency and particle size by varying the type of PS used, the PS:drug ratio, PS:Ca ratio, and NaCl concentration. The efficacy of Amkcch against intracellular Ma infections was evaluated in vitro using mouse peritoneal macrophage infected with M. avium strains MAC 101 or MAC 109. Mouse peritoneal macrophages (Mo) Raw 264.7 cells were seeded at 10^5 cells/well. Mo monolayers were infected at ratio 1:10 for 1 h and extracellular bacteria removed. Monolayers were treated with free amikacin and/or cochleate preparations for 4 days and the number of intracellular bacteria determined. Assays were repeated three times.\nas §1, with “The” for “Amikacin cochleate (Amkcch) formulations were optimized for amikacin encochleation efficiency and particle size by varying the type of PS used, the PS:drug ratio, PS:Ca ratio, and NaCl concentration. The”, “Amkcch against,” for “Amkcch against”, “1 hour” for “1 h”\nThe cochleate preparations used to evaluate biological activity against Mycobacterium avium in vitro included: 1. 2.0 ml/vial of 0 M NaCl amikacin formulation with 0.5 mg/ml; 2. 2.0 ml/vial of 0.066M NaCl amikacin formulation with 0.5 mg/ml; 3. 2.0 ml/vial of 0.33M NaCl amikacin formulation with 0.5 mg/ml; 4. 2.0 ml/vial of 0.66M NaCl amikacin formulation with 0.5 mg/ml; 5. 2.0 ml/vial of 0 M NaCl placebo formulation with 5 mg PS/ml; 6. 2.0 ml/vial of placebo formulation plus amikacin with 0.5 mg/ml; and 7. 2.0 ml/vial of free amikacin in water with 0.5 mg/ml."}, "F. tularensis LVS": {"test_system": "F. tularensis LVS", "format": "cell-based, Francisella tularensis", "conditions": "no treatment 3.0 ± 0.3 × 10^6"}, "M. avium 109": {"test_system": "M. avium 109", "experiment": "M. avium 109-infected mouse peritoneal macrophages (Raw 264.7), intracellular bacteria after 4 days of treatment", "format": "cell-based, Mycobacterium avium", "conditions": "inoculum 2.4 ± 0.3 × 10^5, untreated 3.1 ± 0.6 × 10^6", "method": "as §1\nas §1, with “The” for “Amikacin cochleate (Amkcch) formulations were optimized for amikacin encochleation efficiency and particle size by varying the type of PS used, the PS:drug ratio, PS:Ca ratio, and NaCl concentration. The”, “Amkcch against,” for “Amkcch against”, “1 hour” for “1 h”\nThe cochleate preparations used to evaluate biological activity against Mycobacterium avium in vitro included: 1. 2.0 ml/vial of 0 M NaCl amikacin formulation with 0.5 mg/ml; 2. […]"}, "MAC 101": {"test_system": "MAC 101", "experiment": "MIC against susceptible M. avium strain MAC 101", "conditions": "Mycobacterium avium, such as MAC 101"}, "MAC184 strain": {"test_system": "MAC184 strain", "experiment": "MIC against clarithromycin-resistant clinical isolate MAC184", "parameters": "species or system M. avium", "conditions": "Mycobacterium avium"}}, "note": "Like-named read-outs stand apart in the source and are kept apart here.", "data": [{"molecule": "C[C@@H]1[C@H](O)[C@@H](C)/C=C/C=C/C=C/C=C/C=C/C=C/C=C/[C@H](O[C@@H]2O[C@H](C)[C@@H](O)[C@H](N)[C@@H]2O)C[C@@H]2O[C@](O)(C[C@@H](O)C[C@@H](O)[C@H](O)CC[C@@H](O)C[C@@H](O)CC(=O)O[C@H]1C)C[C@H](O)[C@H]2C(=O)O", "note": "[AmB, Amphotericin B]", "values": [{"measurement": "encochleation efficiency", "setting": "[1]", "value": "greater than 85%"}]}, {"molecule": "NCC[C@H](O)C(=O)N[C@@H]1C[C@H](N)[C@@H](O[C@H]2O[C@H](CN)[C@@H](O)[C@H](O)[C@H]2O)[C@H](O)[C@H]1O[C@H]1O[C@H](CO)[C@@H](O)[C@H](N)[C@H]1O", "note": "[Free amikacin, amikacin]", "values": [{"measurement": "frequency of resistance", "setting": "M. avium", "value": "10^−11"}, {"measurement": "CFU/spleen", "setting": "M. avium 101 [2]; I.P.", "value": "9.3 ± 0.4 × 10^6 CFU/spleen"}, {"measurement": "CFU/spleen", "setting": "M. avium 101 [2]; oral", "value": "6.9 ± 0.3 × 10^7 CFU/spleen"}, {"measurement": "# bacteria day 4", "setting": "M. avium 101 [3]; 20 μg/l, inoculum 3.8 ± 0.4 × 10^5, untreated 4.9 ± 0.5 × 10^6", "value": "3.8 ± 0.5 × 10^4"}, {"measurement": "# bacteria day 4", "setting": "M. avium 101 [3]; inoculum 3.8 ± 0.4 × 10^5, untreated 4.9 ± 0.5 × 10^6", "value": "4.9 ± 0.3 × 10^4"}, {"measurement": "intracellular bacteria Day 4", "setting": "F. tularensis LVS; amikacin 4 μg/ml", "value": "7.6 ± 0.3 × 10^2 CFU/ml"}, {"measurement": "# bacteria day 4", "setting": "M. avium 109; 10 μg/l", "value": "5.0 ± 0.3 × 10^4"}, {"measurement": "# bacteria day 4", "setting": "M. avium 109; 20 μg/l", "value": "2.9 ± 0.4 × 10^4"}]}, {"molecule": "CC[C@@H](CO)NCCN[C@@H](CC)CO", "note": "[ethambutol]", "values": [{"measurement": "MIC", "setting": "MAC 101", "value": 4, "unit": "µg/mL"}, {"measurement": "MIC", "setting": "MAC184 strain", "value": 8, "unit": "µg/mL"}]}, {"molecule": "gentamicin [Free gentamicin]", "values": [{"measurement": "# bacteria day 4", "setting": "M. avium 101 [3]; gentamicin 30 μg/ml (30 μg/l in two rows), untreated 6.4 ± 0.5 × 10^6", "value": "1.9 ± 0.3 × 10^5"}, {"measurement": "intracellular bacteria Day 4", "setting": "F. tularensis LVS; gentamicin 2 μg/ml", "value": "9.3 ± 0.3 × 10^2 CFU/ml"}]}]}
